From US6436952B1, “Benzonaphthyridine-N-oxides comprising a PDE3 and PDE4 inhibiting activity” (BYK Gulden Lomberg Chemische Fabrik GmbH, priority 1998, dated 2002)

Legend:
[1] = biological target: PDE4 (cAMP-specific); assay: Inhibition of PDE isoenzymes: PDE4 in cytosol of human polymorphonuclear leukocytes; assay type: biochemical; conditions: cytosol of human PMNL, cAMP as substrate, motapizone (1 μM) present
Protocol: (§1) The PDE activity was determined according to Thompson et al. (1) with some modifications (2). The test samples contained 40 mM tris HCl (pH 7.4), 5 mM MgCl2, 0.5 μM cAMP or cGMP, [^3H]cAMP or [^3H]cGMP (about 50 000 cpm/sample), the PDE isoenzyme-specific additions described in greater detail below, the indicated concentrations of inhibitor and an aliquot of the enzyme solution in a total sample volume of 200 μl. […] After preincubation at 37° C. for 5 minutes, the reaction was started by addition of the substrate (cAMP or cGMP). The samples were incubated at 37° C. for a further 15 min. The reaction was terminated by addition of 50 μl of 0.2N HCl. After cooling on ice for 10 minutes and addition of 25 μg of 5′-nucleotidase (snake venom from Crotalus atrox), the mixture was again incubated at 37° C. for 10 min and the samples were then applied to QAE Sephadex A-25 columns. The columns were eluted with 2 ml of 30 mM ammonium formate (pH 6.0). The radioactivity of the eluate was measured and corrected by the corresponding blank values. The proportion of hydrolyzed nucleotide in no case exceeded 20% of the original substrate concentration. […]
(§2) The lC50 values were determined from the concentration-inhibition curves by nonlinear regression using the GraphPad InPlot™ program (GraphPad Software Inc., Philadelphia, USA).

[2] = biological target: T1, PDE3 (cGMP-inhibited) (Homo sapiens, UniProt Q14432); assay: Inhibition of PDE isoenzymes: PDE3 in homogenates of human blood platelets; assay type: biochemical; conditions: cAMP as substrate, read-out: PDE3 [-log IC50, mol/l] (converted)
T1 construct: were investigated in homogenates of human blood platelets; from tissue; host or cells: homogenate of human blood platelets
T1 sequence (Q14432 whole entry): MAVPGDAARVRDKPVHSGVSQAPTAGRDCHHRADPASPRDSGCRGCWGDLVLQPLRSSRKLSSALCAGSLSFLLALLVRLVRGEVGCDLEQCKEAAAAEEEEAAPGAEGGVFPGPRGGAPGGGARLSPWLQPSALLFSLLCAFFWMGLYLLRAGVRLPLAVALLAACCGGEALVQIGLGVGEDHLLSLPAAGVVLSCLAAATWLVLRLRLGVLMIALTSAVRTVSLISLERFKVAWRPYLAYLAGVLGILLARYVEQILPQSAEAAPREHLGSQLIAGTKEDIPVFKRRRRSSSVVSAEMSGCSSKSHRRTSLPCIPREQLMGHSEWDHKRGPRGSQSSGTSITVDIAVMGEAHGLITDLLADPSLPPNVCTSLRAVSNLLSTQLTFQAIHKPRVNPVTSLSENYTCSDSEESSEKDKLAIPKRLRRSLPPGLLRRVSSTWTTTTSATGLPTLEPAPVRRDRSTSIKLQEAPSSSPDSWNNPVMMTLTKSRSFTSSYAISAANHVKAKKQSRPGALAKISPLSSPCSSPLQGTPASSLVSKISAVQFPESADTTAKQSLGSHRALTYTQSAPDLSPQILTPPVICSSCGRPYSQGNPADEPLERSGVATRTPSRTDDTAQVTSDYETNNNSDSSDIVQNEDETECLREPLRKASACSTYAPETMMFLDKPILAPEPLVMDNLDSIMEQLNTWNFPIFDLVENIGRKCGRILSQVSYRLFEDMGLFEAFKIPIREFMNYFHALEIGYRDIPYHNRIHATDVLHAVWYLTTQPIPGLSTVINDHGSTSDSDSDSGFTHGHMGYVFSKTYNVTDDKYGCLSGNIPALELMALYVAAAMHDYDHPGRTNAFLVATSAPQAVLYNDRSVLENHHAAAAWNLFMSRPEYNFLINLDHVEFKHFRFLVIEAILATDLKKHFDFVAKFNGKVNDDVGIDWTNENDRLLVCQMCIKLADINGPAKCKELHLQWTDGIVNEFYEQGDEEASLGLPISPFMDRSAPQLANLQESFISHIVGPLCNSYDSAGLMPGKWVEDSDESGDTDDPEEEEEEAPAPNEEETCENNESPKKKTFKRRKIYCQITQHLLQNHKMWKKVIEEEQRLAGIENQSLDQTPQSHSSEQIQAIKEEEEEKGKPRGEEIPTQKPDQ
Protocol: as §1, §2

PDE4 [-log IC50, mol/l] [1]: 7.53 -log IC50, mol/l | IC50 [2]: 776 nM | melting point: 168 to 170 °C
Compound: CCOc1cc2c(cc1OC)C(c1ccc(-c3nnn(CC)n3)cc1)=NC1CC[N+](C)([O-])CC21 (stereo not drawn) [Compound 1, cis-9-Ethoxy-8-methoxy-2-methyl-6-[4-(2H-2-ethyltetrazol-5-yl)phenyl]-1,2,3,4,4a,10b-hexahydrobenzo[c][1,6]naohthyridine N-2-Oxide]
